Target: Aβ42 (Homo sapiens, UniProt P05067)
Assay: Th-T (thioflavin-T) assay of Aβ42 aggregation
Assay type: biochemical
Settings: for Th-T fluorescence, mean of three wells: compound at 50

Aβ42, sequence (P05067 672-713): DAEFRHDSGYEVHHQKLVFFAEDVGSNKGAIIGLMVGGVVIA

C=C1CCC2C(C)(CCC=C(C)C)C(O)CCC2(C)C1Cc1c(OC)oc(CO)c(C(=O)OC)c1=O (stereo not drawn) [Compound 13]
Th-T fluorescence, mean of three wells (reading M54 of time course): 0.4653
Th-T fluorescence, mean of three wells (reading M55 of time course): 0.4661
Th-T fluorescence, mean of three wells (reading M56 of time course): 0.4654
Th-T fluorescence, mean of three wells (reading M57 of time course): 0.4695
Th-T fluorescence, mean of three wells (reading M58 of time course): 0.4698
Th-T fluorescence, mean of three wells (reading M59 of time course): 0.4665
Th-T fluorescence, mean of three wells (reading M60 of time course): 0.4689
Th-T fluorescence, mean of three wells (reading M61 of time course): 0.471
Th-T fluorescence, mean of three wells (reading M62 of time course): 0.4707
Th-T fluorescence of Aβ42 with compound, mean of three wells (Fig. 7a source data) (concentration 10, unit not given, time-course reading M129): 1.537
Th-T fluorescence of Aβ42 with compound, mean of three wells (Fig. 7a source data) (concentration 10, unit not given, time-course reading M130): 1.546
Th-T fluorescence of Aβ42 with compound, mean of three wells (Fig. 7a source data) (concentration 10, unit not given, time-course reading M131): 1.547
Th-T fluorescence of Aβ42 with compound, mean of three wells (Fig. 7a source data) (concentration 10, unit not given, time-course reading M132): 1.542
Th-T fluorescence of Aβ42 with compound, mean of three wells (Fig. 7a source data) (concentration 10, unit not given, time-course reading M133): 1.541
Th-T fluorescence of Aβ42 with compound, mean of three wells (Fig. 7a source data) (concentration 10, unit not given, time-course reading M134): 1.54
Th-T fluorescence of Aβ42 with compound, mean of three wells (Fig. 7a source data) (concentration 10, unit not given, time-course reading M135): 1.5371
Th-T fluorescence of Aβ42 with compound, mean of three wells (Fig. 7a source data) (concentration 10, unit not given, time-course reading M136): 1.543
Th-T fluorescence of Aβ42 with compound, mean of three wells (Fig. 7a source data) (concentration 10, unit not given, time-course reading M137): 1.53
Th-T fluorescence of Aβ42 with compound, mean of three wells (Fig. 7a source data) (concentration 10, unit not given, time-course reading M138): 1.542
Th-T fluorescence of Aβ42 with compound, mean of three wells (Fig. 7a source data) (concentration 10, unit not given, time-course reading M139): 1.54
Th-T fluorescence of Aβ42 with compound, mean of three wells (Fig. 7a source data) (concentration 10, unit not given, time-course reading M140): 1.544
Th-T fluorescence of Aβ42 with compound, mean of three wells (Fig. 7a source data) (concentration 10, unit not given, time-course reading M141): 1.531
Th-T fluorescence of Aβ42 with compound, mean of three wells (Fig. 7a source data) (concentration 10, unit not given, time-course reading M142): 1.539
Th-T fluorescence of Aβ42 with compound, mean of three wells (Fig. 7a source data) (concentration 10, unit not given, time-course reading M143): 1.544
Th-T fluorescence of Aβ42 with compound, mean of three wells (Fig. 7a source data) (concentration 10, unit not given, time-course reading M144): 1.537
Th-T fluorescence of Aβ42 with compound, mean of three wells (Fig. 7a source data) (concentration 10, unit not given, time-course reading M145): 1.534
Th-T fluorescence of Aβ42 with compound, mean of three wells (Fig. 7a source data) (concentration 20, unit not given, time-course reading M129): 1.025
Th-T fluorescence of Aβ42 with compound, mean of three wells (Fig. 7a source data) (concentration 20, unit not given, time-course reading M130): 1.025
Th-T fluorescence of Aβ42 with compound, mean of three wells (Fig. 7a source data) (concentration 20, unit not given, time-course reading M131): 1.024
Th-T fluorescence of Aβ42 with compound, mean of three wells (Fig. 7a source data) (concentration 20, unit not given, time-course reading M132): 1.024
Th-T fluorescence of Aβ42 with compound, mean of three wells (Fig. 7a source data) (concentration 20, unit not given, time-course reading M133): 1.026
Th-T fluorescence of Aβ42 with compound, mean of three wells (Fig. 7a source data) (concentration 20, unit not given, time-course reading M134): 1.029
Th-T fluorescence of Aβ42 with compound, mean of three wells (Fig. 7a source data) (concentration 20, unit not given, time-course reading M135): 1.025
Th-T fluorescence of Aβ42 with compound, mean of three wells (Fig. 7a source data) (concentration 20, unit not given, time-course reading M136): 1.027
Th-T fluorescence of Aβ42 with compound, mean of three wells (Fig. 7a source data) (concentration 20, unit not given, time-course reading M137): 1.027
Th-T fluorescence of Aβ42 with compound, mean of three wells (Fig. 7a source data) (concentration 20, unit not given, time-course reading M138): 1.029
Th-T fluorescence of Aβ42 with compound, mean of three wells (Fig. 7a source data) (concentration 20, unit not given, time-course reading M139): 1.029
Th-T fluorescence of Aβ42 with compound, mean of three wells (Fig. 7a source data) (concentration 20, unit not given, time-course reading M140): 1.019
Th-T fluorescence of Aβ42 with compound, mean of three wells (Fig. 7a source data) (concentration 20, unit not given, time-course reading M141): 1.021
Th-T fluorescence of Aβ42 with compound, mean of three wells (Fig. 7a source data) (concentration 20, unit not given, time-course reading M142): 1.024
Th-T fluorescence of Aβ42 with compound, mean of three wells (Fig. 7a source data) (concentration 20, unit not given, time-course reading M143): 1.022
Th-T fluorescence of Aβ42 with compound, mean of three wells (Fig. 7a source data) (concentration 20, unit not given, time-course reading M144): 1.02
Th-T fluorescence of Aβ42 with compound, mean of three wells (Fig. 7a source data) (concentration 20, unit not given, time-course reading M145): 1.019
Th-T fluorescence of Aβ42 with compound, mean of three wells (Fig. 7a source data) (concentration 50, unit not given, time-course reading M129): 0.475
Th-T fluorescence of Aβ42 with compound, mean of three wells (Fig. 7a source data) (concentration 50, unit not given, time-course reading M130): 0.4748
Th-T fluorescence of Aβ42 with compound, mean of three wells (Fig. 7a source data) (concentration 50, unit not given, time-course reading M131): 0.479
Th-T fluorescence of Aβ42 with compound, mean of three wells (Fig. 7a source data) (concentration 50, unit not given, time-course reading M132): 0.4776
Th-T fluorescence of Aβ42 with compound, mean of three wells (Fig. 7a source data) (concentration 50, unit not given, time-course reading M133): 0.4741
Th-T fluorescence of Aβ42 with compound, mean of three wells (Fig. 7a source data) (concentration 50, unit not given, time-course reading M134): 0.4743
Th-T fluorescence of Aβ42 with compound, mean of three wells (Fig. 7a source data) (concentration 50, unit not given, time-course reading M135): 0.479
Th-T fluorescence of Aβ42 with compound, mean of three wells (Fig. 7a source data) (concentration 50, unit not given, time-course reading M136): 0.4773
Th-T fluorescence of Aβ42 with compound, mean of three wells (Fig. 7a source data) (concentration 50, unit not given, time-course reading M137): 0.4745
Th-T fluorescence of Aβ42 with compound, mean of three wells (Fig. 7a source data) (concentration 50, unit not given, time-course reading M138): 0.4775
Th-T fluorescence of Aβ42 with compound, mean of three wells (Fig. 7a source data) (concentration 50, unit not given, time-course reading M139): 0.4782
Th-T fluorescence of Aβ42 with compound, mean of three wells (Fig. 7a source data) (concentration 50, unit not given, time-course reading M140): 0.4767
Th-T fluorescence of Aβ42 with compound, mean of three wells (Fig. 7a source data) (concentration 50, unit not given, time-course reading M141): 0.4755
Th-T fluorescence of Aβ42 with compound, mean of three wells (Fig. 7a source data) (concentration 50, unit not given, time-course reading M142): 0.4776
